Data on eight molecules can be found in patent EP0874818B1, “NOVEL SUBSTITUTED ARYL COMPOUNDS USEFUL AS MODULATORS OF ACETYLCHOLINE RECEPTORS” (priority 1995, dated 1997).

Read-outs that look alike come from different tables or passages of the source.

Assay [1] addresses muscarinic acetylcholine receptors. The assay can be described thus: 3H-QNB (quinuclidinyl benzilate) displacement, rat cerebral membranes. Particulars: read-out: Displacement of Radiolabeled Liqands IC50 Quinuc Benz. Format: binding.
The test system of another assay is rat striatal slices. The assay can be described thus: 3H-dopamine release from rat striatal slices (superfusion). It counts as cell-based. The conditions noted are these: read-out: % of Nicotine Response 3H-DA Striatum. As to the method: Measurement of ^3H-dopamine (^3H-DA) release from rat striatal slices was performed according to the method of Sacaan et al., (J. Pharmacol. Comp. Ther 224:224-230 (1995)). Male Sprague-Dawley rats (250-300 g) were decapitated and the striata or olfactory tubercles dissected quickly on a cold glass surface. The tissue was chopped to a thickness of 300 µm with a McIlwain tissue chopper. After chopping again at right angles the tissue was dispersed and incubated for 10 min. at 37°C in oxygenated Kreb's buffer. ^3H-Dopamine (40 Ci/mmol, NEN-Dupont, Boston, Ma) was added (50 nM) and the tissue was incubated for 30 min. in Kreb's buffer containing 10 µM pargyline and 0.5 mM ascorbic acid. Aliquots of the minced tissue were then transferred to chambers of a Brandel Superfusion system in which the tissue was supported on Whatman GF/B filter discs. The tissue was then superfused with buffer at a constant flow rate of 0.3 ml/min by means of a Brandel peristaltic pump. The perfusate was collected in plastic scintillation vials in 3-min fractions, and the radioactivity was estimated by scintillation spectrophotometry. The superfusate for the first 120 min was discarded. […] At the end of the experiment the filter and the tissue were removed, and the radiolabeled neurotransmitter content was estimated after extraction into scintillation fluid. The fractional efflux of radiolabeled neurotransmitter was estimated as the amount of radioactivity in the perfusate fraction relative to the total amount in the tissue.
The results presented in the Table are expressed as the percent fractional release.

For another assay, the system named is rat hippocampus. Nature of the assay: tissue or blood. Format: cell-based. The conditions noted are these: read-out: % of Nicotine Response 3H-NE Hippocampus.
For assay [2], the system named is acetylcholine release in the hippocampus. Format: in vivo, Male Sprague Dawley Rats. The source says:
Male Sprague Dawley Rats (230-290 g) were anesthetized in a chamber saturated with isofluorane. Once immobilized, the rats were mounted in a Kopf stereotaxic apparatus with the incisor bar set at -3.3 mm (Praxinos and Watson, 1986). A midline incision was made on the skull to expose the underlying fascia. The skull was cleaned with an antibacterial preparation containing iodine and a hole was made in the skull at the following coordinates: AP, -3.5 mm and ML, +2.0 mm (Praxinos and Watson, 1986). A stainless steel guide cannula (Small Parts, Inc., Stillwater, FL) was cut to 2.0 mm length and inserted into the hole. Three additional holes were drilled into the skull surrounding the guide cannula and small machine screws were placed into these holes. The guide cannula and screws were secured by dental cement. A dummy cannula was inserted into the guide cannula to prevent clogging. The animals were removed from the stereotaxic frame and single housed for 3-7 days with free access to food and water.
On the day of the experiment, the rats were briefly anesthetized with isofluorane and the dummy cannulae were removed. A microdialysis cannula containing a Loop type probe with a rigid shaft and molecular weight cut-off of 6000 (ESA Inc, Chelmsfold, MA) of approximately 2 mm in length, was inserted into the guide cannula. Under these conditions, the microdialysis probe extended 2 mm beneath the guide cannula. The animal was placed in plastic bowl (CMA 120; CMA Microdialysis, Acton, MA, USA) with a harness around the neck. The microdialysis probe was connected to a syringe pump through which a salt solution representing the ionic concentration of the cerebrospinal fluid (artificial CSF; 145 mM NaCl; […]; […] and […]; pH 7.4; Moghaddam and Bunney, J. Neurochem, 53, 652-654, 1989) containing 100 nM neostigmine was pumped at a rate of 1.5 µL/min.
Twenty minute fractions were collected and automatically injected via a sample loop and an auto-injector. The on-line microdialysis comprised of the following components: a CMA/100 microsyringe pump connected to a CMA/111 syringe selector. The mobile phase (100 mM disodium hydrogen phosphate; 2.0 mM 1-octane sulfonic acid sodium salt; 0.005% reagent MB (ESA Inc., Chelmeford, MA) pH 8.00 with phosphoric acid) was pumped using a model 580 ESA pump through a polymeric reverse phase column (ACH-3, ESA Inc., […]; 3.2 mmx 15 cm). The effluent from the column was passed through an enzyme reactor containing immobilized acetylcholinesterase and choline oxidase (ACH-SPR, ESA Inc.). The HPLC column and the enzyme reactor were placed in a housing with a constant temperature of 35°C. Acetylcholine and choline in microdialysis samples were converted into hydrogen peroxide which was detected by amperometric oxidation in a ESA model 5041 analytical cell containing a glassy carbon target electrode and a palladium reference electrode. The oxidation potential was 250 mV and the signal was detected by a ESA model 5200 A Coulochem detector. The retention times for choline and acetylcholine under these conditions were 4 and 6 min, respectively. The limit of detection for acetylcholine was less than 100 fmol on column.
On the day of the experiment, 10-12 fractions were collected to establish the baseline acetylcholine release. Following the establishment of baseline, rats were injected with the test compound and samples were collected until the levels of acetylcholine in the dialysate samples returned to baseline levels (3-5 hr). Compounds were typically dissolved in saline and the pH of the solution was adjusted by the addition of NaOH.

Where [3] appears, read: 60 pM 3H-QNB, rat cerebral membranes, no atropine.
Setting [4] is: compound tested at 300 µM, relative to nicotine 10µM.
Where [5] appears, read: hippocampal acetylcholine, rat microdialysis, nicotine 0.4 mg/kg, lobeline 5.0 mg/kg, first Formula Z compound 40 mg/kg, other doses not given.

As usually defined, the IC50 is the concentration that inhibits the measured activity by half. In the case of `CN1CCC[C@H]1COC(=O)CCc1ccc(O)cc1` [1-Methvl-2-pyrrolidinemethyl 3-(4-hydroxyphenyl)propionate], in assay [1] (setting [3]), the IC50 is greater than 10000 nM.

In the case of `CN1CCC[C@H]1COC(=O)CCc1ccccc1` [1-Methyl-2-pyrrolidinemethyl 3-phenylpropionate], in assay [1] (setting [3]), the IC50 was 1120 nM.

With `CN1CCCC1CCSc1ccc(O)cc1Cl` (stereo not drawn) [2-[2-(2-Chloro-4-hydroxyphenyl)thioethyl]-1-methylpyrrolidine], in assay [1] (setting [3]), the IC50 was 3300 nM. In addition, the Emax at 300 µM in the assay on rat striatal slices (setting [4]) stood at 800%.

Consider `COc1ccc(SCCC2CCCN2C)cc1F` (stereo not drawn) [2-[2-(3-Fluoro-4-methoxyphenyl)thioethyl]-1-methylpyrrolidine], for which, in assay [1] (setting [3]), the IC50 is 2900 nM. For the same molecule, the Emax at 300 µM in the assay with rat striatal slices (setting [4]) is 21%.

As for `CN1CCCC1CCSc1ccc(O)cc1` (stereo not drawn) [2-[2-(4-Hydroxyphenyl)thioethyl]-1-methylpyrrolidine], the Emax at 300 µM in the assay with rat hippocampus was determined as 32%; with rat striatal slices, 453%. Moreover, in assay [2] (setting [5]), the “Duration of Increase Above Baseline” value is 200 min. The “Peak Increase, % of Baseline” value in assay [2] (setting [5]) is reported as 2,000 % of Baseline. In addition, in assay [1], the IC50 was 1850 nM.

As for `CN1[C@@H](CC(=O)c2ccccc2)CCC[C@H]1C[C@H](O)c1ccccc1` [Lobeline], in assay [2] (setting [5]), the “Duration of Increase Above Baseline” value was determined as 200 min and the “Peak Increase, % of Baseline” value is on record as 400 % of Baseline.

In the case of `CN1CCCC1c1cccnc1` (stereo not drawn) [Nicotine, reference compound], in the assay with rat hippocampus, the Emax at 300 µM stood at 100%. For the same molecule, in assay [2] (rat, in vivo), the “Duration of Increase Above Baseline” value was found to be 200 min and the “Peak Increase, % of Baseline” value was 220 % of Baseline. Moreover, the Emax at 10 µM in the assay with rat striatal slices worked out at 100%.

For `CNC1(C)C2CCC(C2)C1(C)C` (stereo not drawn) [mecamylamine], in assay [2] (rat hippocampus microdialysis, Figure 5), the “attenuation of acetylcholine release induced by compound of Formula Z (A = 4-hydroxyphenyl, B = not present, D = -S-, E = -CH2CH2-, G = 1-methylpyrrolidino)” value was “attenuation of acetylcholine release”.
